In general, melting point refers to the temperature of the solid-liquid transition.

On to `Cc1c(C(=O)C(=O)NC2=CC(=O)OC2)c2ccccc2n1Cc1ccc(Cl)cc1`, for which the melting point lay in the range of 254 to 256 °C.
In the case of `CN(c1ccc(OCCCCBr)cc1)S(=O)(=O)c1ccc(C(F)(F)F)cc1` it was 91 to 92 °C.
For the compound `ClCc1coc(-c2cc3ccccc3o2)n1`, the melting point fell in the range of 133 to 134 °C.
The same measure for `COc1ccc2c(O)c(-c3ccccc3OC)c(=O)[nH]c2c1`: above 300 °C; for `CC(C)(C)NC(=O)NN1CC=CCC1`: 156 °C.
The compound `Cc1csc(-c2ccc3c(c2)C=C(C(=O)Nc2ccc(CN(C)C4CCOCC4)cc2)CCS3(=O)=O)c1` showed a melting point of 232 to 234 °C.
The same measure for `CCn1cc(C)c(=S)[nH]c1=O`: 205 to 206 °C; for `CN1CCC(N2C(=O)c3cc(Cl)ccc3Sc3ccccc32)CC1`: 164 to 165 °C; for `CCOCc1nc2c(N)nc(C)c(C)c2n1CCCC(N)=O`: 199 to 200 °C.
The same measure for `O=C(c1cccs1)c1cnn2c(-c3ccc(F)c(Br)c3)ccnc12`: 74 to 76 °C.
As to `COc1ccc2c(c1)c(CC(=O)O)c(C)n2CC1CCCCC1`, the melting point was in the range of 173 to 175 °C.
For `CCCCC(CC)C(=O)Nc1ccc2ccn(Cc3ccc(C(=O)CS(=O)(=O)c4ccccc4)cc3OC)c2c1` (stereo not given), the melting point lay within 131 to 133 °C.
`COc1cc2nc(N)nc(-c3cccc(CO)c3)c2cc1OC` gave a melting point of 230 to 232 °C.
In the case of `O=c1[nH]cnc2c1ncn2[C@@H]1CO[C@H](CO)C1` it was 98 °C.
In the case of `CC(C(=O)O)c1ccc(Sc2nccs2)cc1` (stereo not given) it was 85 to 87 °C.
`O=[N+]([O-])c1ccc(CN2CCN(c3ccc(F)cc3)CC2)cc1` displayed a melting point of 139 to 141 °C.
`CC(c1cn(C)c2ccccc12)N(O)C(N)=O` (stereo not given) registered a melting point of 149 to 150 °C.
The same measure for `Nc1nc(O)c2c(n1)NCC(CCc1cc(C(=O)O)n[nH]1)C2` (stereo not given): above 260 °C; for `Cc1nnc2n1-c1sccc1C(c1ccccc1[N+](=O)[O-])=NC2`: 260 to 262 °C; for `O=C(O)c1cc(=O)c2c(o1)-c1ccccc1SC2`: 251 to 253 °C.
The same measure for `COc1ccc(-c2c(Cl)c(CN3C(=O)CCC3=O)nc3sc4c(c23)CCN(C(=O)C(F)(F)F)C4)cc1`: 250 to 252 °C; for `COc1ccc(-c2csc(Nc3cnccn3)n2)cc1OC`: 205 to 207 °C; for `N#Cc1ccccc1OCCCCC(=O)O`: 87 to 89 °C.
In the case of `COc1cc2c(cc1OC)CN(CCCSc1ccc(NC(=O)c3cccc4c(=O)c5cccc(F)c5[nH]c34)cc1)CC2` it was 162 °C.
Take `S=C=Nc1ccccc1-c1ccc(Cl)cc1`: the melting point was determined as 63 °C.
`COC(=O)C1=C(C)NC(C)=C(P(=O)(OC)OC)C1c1cccc([N+](=O)[O-])c1` (stereo not given) gave a melting point of 221 to 223 °C.
As to `CN1C(=S)C(C)(C)N=C1SCc1ccccc1N(C)C`, the melting point lay within 76 to 78 °C.
`O=C(O)C(CC=Cc1ccccc1)Cc1cccc2ccccc12` (stereo not given) gave a melting point of 135 to 137 °C.
In the case of `COc1ccc(C=O)c(OC)c1Br` it was 80 °C.
As to `CCC1(CC)c2cc(Br)ccc2-c2ccc(Br)cc21`, the melting point was in the range of 144 to 153 °C.
In the case of `O=C(C=CC[C@H]1NC(=O)[C@@H]1N1C(=O)c2ccccc2C1=O)OCc1ccccc1` it was 115 to 120 °C; in that of `COc1cc(C=O)cc(C(F)(F)F)c1O`, 151 to 152 °C; in that of `CCN=C(SC)N(C)Cc1ccc(Cl)nc1`, 132 to 133 °C.
In the case of `O=C1COCC2=C1C(c1ccc(F)c(Br)c1)C1=C(CNC1=O)N2` (stereo not given) it was above 260 °C; in that of `CC(/C=C/CC(C)c1cc(C(C)(C)C)cc(C(C)(C)C)c1)=C\C(=O)O` (stereo not given), 127 to 128 °C; in that of `CCc1cc(C)cc(CC)c1C1=C(OCc2ccccc2)C2CC(C=CC(C)=O)CC2C1=O` (stereo not given), 60 °C.
In the case of `CC1CC(=O)NN=C1c1ccc(NC(=NC#N)NCCc2ccccc2)cc1` (stereo not given), the melting point lay within 209 to 210 °C.
The same measure for `Cc1ccc(N2C(=O)c3nccnc3C2=O)nc1`: 240 °C; for `C=CC(C)(C)c1cc(CCC(=O)c2ccc(O)cc2)c(OC)cc1O`: 154 °C.
In the case of `CO[C@@H](Cc1ccc(C#CCOc2ccc(-c3ccccc3)cc2)cc1)C(=O)O`, the melting point was in the range of 111 to 112 °C.
In the case of `CCOC(=O)C=c1sc2n(c1=O)Cc1ccccc1N=2`, the melting point lay in the range of 222 to 224 °C.
The same measure for `CC(C)c1ccc(N(Cc2ccc(N(C)C)cc2)C(=O)C2CCOc3cc(O)ccc32)cc1` (stereo not given): 173 °C; for `CCCc1c[nH]c(-c2ccc(Cl)cc2)c1-c1ccc(Cl)cc1`: 90 to 93 °C; for `CC(CN1CCCC1)N1c2ccccc2Sc2ccc(C(=O)Nc3ccccc3)cc21` (racemic): 163 °C.
In the case of `CC1(C(=O)O)COC2(CC3CCC2(C)C3(C)C)OC1` (stereo not given) it was 172 to 175 °C; in that of `CCC(=O)c1ccc(S(=O)(=O)c2ccccc2)cc1`, 83 to 84 °C; in that of `Cc1cc(Nc2cc(F)c(F)cc2C(=O)O)n(-c2ccccn2)n1`, 247 to 248 °C.
In the case of `OC(Cn1cncn1)(c1ccc(Cl)cc1)C1(C2CC2)CC1` (stereo not given) it was 110 to 112 °C; in that of `O=C1N(c2cc(Cl)cc(Cl)c2)C(=O)C2(Cc3ccc(-c4ccc([N+](=O)[O-])cc4)cc3)CCCN12` (stereo not given), 72 to 73 °C.
`CCCCc1nc2cc(Cl)cc(C(=O)OC)c2n1Cc1ccc(-c2ccccc2-c2nnn[nH]2)cc1` had a melting point of 132 to 133 °C.
`CCCCCCCCCCCCCCCCCC(=O)Oc1cccc(C(=O)OCC)c1` returned a melting point of 57 °C.
The same measure for `CCc1nc(-c2cccc(C)c2)c(-c2ccnc(NC(=O)Cc3ccccc3)c2)s1`: 107 to 108 °C; for `Fc1ccc(N2CCN(CCCc3[nH]nc4c3CSCC4)CC2)cc1`: 110 to 111 °C.
`CSc1c(CC(C)(C)C(=O)O)n(Cc2ccc(Cl)cc2)c2ccc(F)cc12` showed a melting point of 161 to 163 °C.
`Cc1ccc(-c2c(-c3ccc(S(C)(=O)=O)cc3)cnn(-c3ccc(F)cc3)c2=O)cc1` came in with a melting point of 242 to 244 °C.
The same measure for `Nc1nc(NCCc2ccc(Cl)cc2)sc1C(=O)c1ccccc1[N+](=O)[O-]`: 117 to 120 °C; for `CCC[C@@H]1COC(=O)N1c1nc(-c2ccc(C#N)cc2)cs1`: 131 to 133 °C.
In the case of `CC1(O)CCN(C(=O)c2cc(-c3cnc4[nH]cc(C(=O)C5(C)CCCCC5)c4n3)cs2)CC1` it was 257 to 259 °C; in that of `CCc1nc(-c2cccc(C#N)c2)c(-c2ccnc(N)c2)s1`, 178 to 179 °C.
The compound `CCC[C@H]1CC[C@H]([C@H]2CC[C@H](c3ccc(C(C)=O)cc3)CC2)CC1` registered a melting point of 81 °C.
The same measure for `COc1cc(C(C)N(O)C(N)=O)ccc1OCCc1ccccc1` (stereo not given): 112 to 115 °C; for `Cc1cc(-c2cc(CO)c(=O)n(CC(C)C)n2)ccc1F`: 107 to 110 °C; for `CCCCCCCCCCCCCCCCN(C(=O)c1ccc(Cl)c([N+](=O)[O-])c1)c1ccccc1[N+](=O)[O-]`: 83 to 85 °C.
The compound `FC(F)Oc1ccc(-c2nnc(Nc3ccc(Cl)c(Cl)c3)s2)cc1` displayed a melting point of 265 to 266 °C.
In the case of `CCCCOCCOc1ccc(-c2ccc3c(c2)C=C(C(=O)OC)CCN3c2ccc(S(=O)(=O)NC)cc2)cc1`, the melting point lay in the range of 142 to 146 °C.
In the case of `Nc1nc2c(ncn2OC(CO)CCP(=O)(O)O)c(=O)[nH]1` (stereo not given) it was 177 to 178 °C; in that of `O=[N+]([O-])c1c(O)c(O)cc2ccccc12`, 141 to 143 °C.
`COc1cc(C=CC(CSc2ccccc2)=NO)ccc1O`: the melting point lay in the range of 90 to 100 °C.
Take `CCN(C(=O)C(C)(C)C)c1ccc(F)cc1F`: the melting point fell in the range of 69 to 71 °C.
Take `O=C(O)C1=Cc2cc(Cl)ccc2NC1C(F)(F)F` (stereo not given): the melting point was in the range of 133 to 134 °C.
For the compound `OCc1ncn2cc(Br)sc12`, the melting point lay in the range of 104 to 105 °C.
In the case of `C#CCn1c(=O)n(C)c2ccccc21` it was 110 to 112 °C.
`ClCCN(CCCl)CCCCOc1cccc(Nc2c3ccccc3nc3ccccc23)c1` showed a melting point of 126 to 127 °C.
In the case of `COc1ccc(/C=C(\C#N)c2ccc(Cl)c(Cl)c2)cc1OC1CCCC1` it was 152 to 154 °C; in that of `Cc1cc([N+](=O)[O-])c(NC(C)C(=O)O)c([N+](=O)[O-])c1` (stereo not given), 158 to 161 °C.
Compound `COC(=O)c1cnoc1-c1ccc(Cl)cc1Cl` registered a melting point of 83 to 84 °C.
In the case of `CCCCc1ncc(C=C2C(=O)NC(=O)N2CCCC)n1Cc1ccccc1C(=O)O` it was 287 to 289 °C; in that of `Cn1cnc(CNC(=O)c2ccnc(N3CCN(Cc4ccc(F)cc4)C3=O)c2)c1`, 174 to 176 °C.
Turning to `COc1ccc(CN2CC(COC(c3ccccc3)(c3ccccc3)c3ccccc3)CC2=O)cc1` (stereo not given), the melting point was in the range of 171 to 173 °C.
Take `C#CCC(O)(c1cncnc1)C(C)(C)C` (stereo not given): the melting point lay in the range of 174 to 176 °C.
The compound `O=C(c1cccs1)c1cnn2c(-c3cccc(NCCc4ccccc4)c3)ccnc12` had a melting point of 118 to 120 °C.
The same measure for `CCOc1cccc(C(COc2ccccc2)n2nc(C(=O)O)c3c2-c2ccc(OCc4cncnc4)cc2CC3)c1` (stereo not given): 190 to 192 °C.
`CC1(C)CC(C2=NN(CC#N)C(=O)N(/N=C/c3cncc(F)c3)C2)=NO1` gave a melting point of 195 to 197 °C.
`CC(=O)NC[C@H]1CN(c2ccc(C3CCN(C(=O)CO)CC3)cc2)C(=O)O1` returned a melting point of 155 to 157 °C.
The compound `CC(Oc1ncn(-c2ccc(Br)cc2)n1)C(=O)NC1CC1` (stereo not given) yielded a melting point of 170 to 172 °C.
The same measure for `CC1=C(C(=O)OCCO)C(c2ccccc2OCc2ccccc2)C([N+](=O)[O-])=C(C)N1` (stereo not given): 183 to 185 °C; for `O=c1[nH]c2cc(F)c(NCC3CCc4ccccc4C3)cc2o1` (stereo not given): 177 to 178 °C.
As for `CC(=O)NC[C@H]1CN(c2ccc3c(c2)CCOC3)C(=O)O1`, the melting point fell in the range of 142 to 145 °C.
Take `CN1C(=O)CC[C@]2(C)c3ccc(-c4cnc5ccccc5n4)cc3CC[C@@H]12`: the melting point lay within 129 to 135 °C.
The same measure for `FC(F)(F)c1cc(-c2ccc(Cl)cc2)[nH]c1C(F)(F)F`: 72 to 73 °C.
